From patent US20180008573A1, “METHODS AND COMPOSITIONS FOR REDUCING DAMAGE ASSOCIATED WITH OXIDATIVE PHOSPHORYLATION” (USANA Health Sciences, Inc., priority 2016, published 2018)

Tests used:
Nrf2 = biological target: T1, Nrf2 (Homo sapiens, UniProt Q16236); assay: Nrf2 signaling fluorescent reporter assay in human retinal epithelial cell line; type: cell-based; parameters: host or cells: human retinal epithelial cell line
T1 sequence (Q16236 1-605): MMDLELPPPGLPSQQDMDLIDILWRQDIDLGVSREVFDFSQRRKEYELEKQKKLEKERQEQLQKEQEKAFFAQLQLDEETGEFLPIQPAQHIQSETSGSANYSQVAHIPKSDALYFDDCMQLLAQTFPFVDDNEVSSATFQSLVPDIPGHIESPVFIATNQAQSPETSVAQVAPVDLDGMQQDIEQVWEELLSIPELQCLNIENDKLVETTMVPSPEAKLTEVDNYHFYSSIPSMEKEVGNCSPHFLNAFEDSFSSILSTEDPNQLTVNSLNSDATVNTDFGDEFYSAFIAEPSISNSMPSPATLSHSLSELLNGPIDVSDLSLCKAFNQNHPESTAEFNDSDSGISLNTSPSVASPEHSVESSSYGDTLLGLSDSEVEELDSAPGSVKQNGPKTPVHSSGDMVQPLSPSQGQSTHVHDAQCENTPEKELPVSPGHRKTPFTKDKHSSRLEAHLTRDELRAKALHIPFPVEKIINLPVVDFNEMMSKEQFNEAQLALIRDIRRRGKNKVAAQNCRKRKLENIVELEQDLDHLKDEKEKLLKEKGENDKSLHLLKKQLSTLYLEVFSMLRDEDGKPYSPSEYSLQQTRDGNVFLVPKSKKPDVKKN

human PPARα = biological target: T2, human PPARα (Homo sapiens, UniProt Q07869); assay: PPARα agonist reporter assay (Gal4 hybrid receptor, luciferase, CHO cells); type: cell-based
T2 construct: expressed in transfected cells; host or cells: CHO
T2 sequence (Q07869 239-466 limits assumed): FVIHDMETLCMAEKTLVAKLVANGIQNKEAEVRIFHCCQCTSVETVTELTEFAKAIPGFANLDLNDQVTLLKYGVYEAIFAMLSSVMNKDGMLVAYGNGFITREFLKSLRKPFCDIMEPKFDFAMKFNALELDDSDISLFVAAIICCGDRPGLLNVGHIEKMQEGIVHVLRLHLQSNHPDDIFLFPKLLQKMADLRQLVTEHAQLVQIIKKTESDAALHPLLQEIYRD

C. elegans strain CB5586 = assay: C. elegans phenotypic lifespan screening (Kaplan-Meier, Log-Rank, Fisher's Exact Test); type: in vivo; conditions: for restricted mean lifespan, # of Days: DMSO control 13.23
Experimental: Dilutions of the test formulations were applied to individual populations of C. elegans and the lifespan of each population was monitored. Any changes in the lifespan of an individual population compared to a control population were recorded and correlated to the respective test formulation (N356 or N357) and the respective dilution (0.1 mg/ml, 1 mg/ml, and 10 mg/ml).
The […] and N357 formulations were each prepared as individual 100 mg/ml stock solutions in dimethyl sulfoxide (DMSO). Serial dilutions of each stock solution were then prepared at 0.1 mg/ml, 1 mg/ml, and 10 mg/ml in DMSO. Control solutions of DMSO only were also prepared. Synchronous aged adult populations of C.elegans strain CB5586 worms were prepared. The CB5586 strain comprises a pharyngeal GFP (green fluorescent protein) tag and a mutation in the bus-5 gene. The pharyngeal GFP tag allows for fluorescent images of the worm populations to be taken. The mutation in the bus-5 gene causes the loss of normal cuticle antigens that permits the cuticle of the worms to become permeable to the test formulations and allow direct uptake of the test formulations to avoid interaction of the test formulations with protective mechanisms of the gut channel. Each serial dilution of each test formulation was added to a separate population of the prepared worms. The control solutions were also added to separate populations of the prepared worms. The populations of the prepared worms were then maintained on standard nematode growth media (NGM) agar plates at 20° C. with sufficient food (Escherichia coli strain OP-50).
Each worm population was then monitored by fluorescent imaging to determine the number of living and dead worms as a function of time. The fluorescent imaging was analyzed by software that recognized and counted worms based on their fluorescent intensity compared to background fluorescence. […] The ability to distinguish between living and dead worms allowed the number of living worms and cumulative number of dead worms to be monitored against time. Worm populations from a selection of fluorescent images were manually checked to verify that the software had accurately counted the number of living and dead worms.
The counts of the living and dead worms as a function of time were then analyzed for each of the worm populations and used to prepare Kaplan-Meier survival curves and associated statistics for each of the worm populations. […] The median lifespan is shown as the length of time after the last mitotic division that 50% of the test population remains viable when compared to the control population. The maximum lifespan extension is shown as the length of time after the last mitotic division that 5% of the test population remains viable when compared to the control population.
The counts of the living and dead worms as a function of time and the Kaplan-Meier survival curves and the associated statistics were then analyzed for each of the worm populations. The analysis included determining mean and median lifespan. The analysis included a non-parametric test, the Log-Rank test, that compares two survival functions for the overall lifespan assay and provides a reliable p-value summarizing the whole experiment. The analysis also included Fisher's Exact Test that calculated the significance of survival function comparisons at multiple specific time points throughout the experiment, rather than for the overall lifespan. The results of the analysis are shown below in Tables 10-17.
Phenotypic screening was carried out as described in EXAMPLE 2 for various individual compounds of the N357 formulation. […] Alpha lipoic acid was sourced from PureBulk USA as a racemic mix of R and S stereoisomers and was assigned a sample number of N198. Hesperidin was sourced from Sigma Aldrich at ≧80% purity and was assigned a sample number of N347. […]

human NF-κB = assay: NF-κB antagonist reporter assay (NF-κB GRE-luciferase, HEK293 cells); type: cell-based;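 also: reporter cells carry native NF-κB receptor with firefly luciferase under upstream response elements, with a vehicle control included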

O=C(O)CCCCC1CCSS1 (racemic) [Alpha lipoic acid, alpha lipoic acid]
activation of Nrf2 (Nrf2; 100 μM and 30 μM against a control): demonstrated activation of Nrf2 at both 100 μM and 30 μM
minimum inducing concentration (Nrf2) (Nrf2; human retinal epithelial cell line): 1.75 µM
PPARα Fold-Activation (human PPARα; 1.42 μg/ml active ingredient): 1.4 fold
PPARα Fold-Activation (human PPARα; 4.25 μg/ml active ingredient): 1.3 fold
PPARα Fold-Activation (human PPARα; 12.7 μg/ml active ingredient): 1.2 fold
PPARα Fold-Activation (human PPARα; 38.23 μg/ml active ingredient): 1.5 fold
PPARα Fold-Activation (human PPARα; 114.70 μg/ml active ingredient): 2.3 fold
agonist activity against human PPARα (human PPARα; at the concentrations tested): very low-level agonist activity
Statistically Significant Result (lifespan vs. DMSO control) (C. elegans strain CB5586; 0.1 mg/ml): Statistically significant increase
extension of lifespan (C. elegans strain CB5586; 0.1 mg/ml): about 12.5%
population age in days at 25% mortality (C. elegans strain CB5586; 0.1 mg/ml): 14 days
population age in days at 50% mortality (C. elegans strain CB5586; 0.1 mg/ml): 16 days
population age in days at 75% mortality (C. elegans strain CB5586; 0.1 mg/ml): 18 days
effect on chronological lifespan (C. elegans strain CB5586; 0.1 mg/ml and 10 mg/ml tested): significant positive and dose dependent increase of chronological lifespan
% Change in Mean Lifespan (C. elegans strain CB5586; 0.1 mg/ml vs. DMSO control): +12.5%
restricted mean lifespan, # of Days (C. elegans strain CB5586; 0.1 mg/ml): 14.89 days
Statistically Significant Result (lifespan vs. DMSO control) (C. elegans strain CB5586; 10 mg/ml): Statistically significant increase
extension of lifespan (C. elegans strain CB5586; 10 mg/ml): about 12.5%
population age in days at 25% mortality (C. elegans strain CB5586; 10 mg/ml): 14 days
population age in days at 50% mortality (C. elegans strain CB5586; 10 mg/ml): 16 days
population age in days at 75% mortality (C. elegans strain CB5586; 10 mg/ml): 18 days
% Change in Mean Lifespan (C. elegans strain CB5586; 10 mg/ml vs. DMSO control): +12.5%
restricted mean lifespan, # of Days (C. elegans strain CB5586; 10 mg/ml): 14.85 days
NF-κB % Inhibition (human NF-κB; 1.42 μg/ml active ingredient): 3.1%
NF-κB % Inhibition (human NF-κB; 4.25 μg/ml active ingredient): −0.70%
NF-κB % Inhibition (human NF-κB; 12.7 μg/ml active ingredient): −6.1%
NF-κB % Inhibition (human NF-κB; 38.23 μg/ml active ingredient): 5.9%
NF-κB % Inhibition (human NF-κB; 114.70 μg/ml active ingredient): −14%
